Entries after “also recorded” stand apart in the source; their conditions may differ.
Assays:
[1] = tested on: BCL-2; conditions: ref Souers et al., 2013; cited from earlier work
[2] = tested on: BAX; assay: BAX/BCL-2 co-immunoprecipitation in HeLa cells; assay type: binding; conditions: HeLa cells co-expressing full-length BAX and BCL-2; BCL-2 antibody IP

For CC1(C)CCC(CN2CCN(c3ccc(C(=O)NS(=O)(=O)c4ccc(NCC5CCOCC5)c([N+](=O)[O-])c4)c(Oc4cnc5[nH]ccc5c4)c3)CC2)=C(c2ccc(Cl)cc2)C1 [ABT-199], the BCL-2 inhibitory activity [1] is given as “selective BCL-2 inhibitor”.

With “BCL-2 L23A: L23A point mutant of BCL-2 protein” the “co-immunoprecipitation of BAX with BCL-2” value [2] was “impaired by L23A mutagenesis of the BCL-2 BH4 domain; also recorded: less effective at co-immunoprecipitating BAX relative to wild-type BCL-2”.
